The text below walks through data of patent US8158667B2, “Topical treatment of cataracts in dogs” (priority 2006, dated 2012).

For data set [1], the system named is accumulation of sorbitol. Particulars: fold more effective than sorbinil; '704 patent; cited from earlier work.
In data set [2] the target is aldose reductase (Homo sapiens, UniProt P15121). Particulars: '704 patent; cited from earlier work.
Data set [3] in a line: stability of 2R-MS in carbomer gel emulsion. Type of data set: physicochemical. The conditions noted are these: room temperature. On the procedure:
To maximize the topical administration of 2R-MS, vehicles or carriers of different viscosities comprised of polymers, gums, or viscosity enhancers were prepared. Formulations containing 3% of the AR inhibitor 2R-MS were prepared using the five different vehicles, which included 0.5% hydroxypropyl methylcellulose (HPMC); 0.5% xanthan gum; 0.5% gellan gum; 0.25% carbopol; and 0.25% carbopol (0.25% w/v)+0.25% HPMC. All were prepared in modified Sorensen's Phosphate Buffer, pH of 7.4. The drug and each vehicle were suspended directly in a sterile eye drop bottle by vortexing vigorously for at least one minute. […] All suspensions were vortexed prior to topical administration. An additional topical carbomer gel formulation consisting of 2.5% water soluble high molecular weight polymer of acrylic acid cross-linked with a polyether of sucrose was also developed. Carbomers are widely used in products for the treatment of dry eye. Crystalline 2R-MS was ground into a fine powder and mixed into an emulsion according to standard techniques.

A short description of data set [4]: systemic half-life in dogs. The conditions noted are these: dog, in vivo. From the text: Topical administration of the ARI 2R,4S-6-fluoro-2-methyl-spiro[chroman-4,4′-imidazolidine]-2′,5′-dione (2-MS) is the preferred method for preventing cataracts and ocular complications in diabetic dogs and cats. As a result of the short, 3 hr systemic half-life of 2-MS in dogs and subsequent studies conducted in galactose-fed dogs, it is estimated that, at minimum, a multiple 4-times/day oral dose is required for efficacy. Topical application permits a lower dosage and a lower frequency of administration. Topical application will also minimize the tendency of diabetic dogs to have their liver functions compromised because topical administration will bypass first pass liver metabolism. The topical treatment of the present invention will not only arrest the progression of sugar cataracts, but also reduces the density of early cortical cataracts. […] The topical treatment should also delay the formation of other ocular diabetes associated complications associated with aldose reductase, as summarized above.

Consider `CC1CC2(NC(=O)NC2=O)c2cc(F)ccc2O1` (stereo not shown) [2-methyl sorbinil, 6-fluoro-2-methyl-spiro-[chroman-4,4′-imidazolidine]-2′,5′-dione], for which, in data set [1], the “effectiveness in preventing the accumulation of sorbitol relative to sorbinil” value is 2-10 times. For the same molecule, the “inhibiting aldose reductase, compared with sorbinil” value in data set [2] is reported as “more effective in inhibiting aldose reductase”.
For orientation: half-life means the time needed for the level to fall by half in the phase considered. High values mean slow decline, low ones rapid decline. As for `C[C@@H]1C[C@]2(NC(=O)NC2=O)c2cc(F)ccc2O1` [2R-MS, 2R,4S-6-fluoro-2-methyl-spiro[chroman-4,4′-imidazolidine]-2′,5′-dione], the “stability in the emulsion” value in data set [3] was “stable in the emulsion for a minimum of ten months”. In data set [4], this molecule had a half-life of 3 h.
